In patent US20230053688A1, “METHODS TO ALTER LATENCY IN EBV+ MALIGNANCIES” (Cornell University, priority 2020, published 2023):
Read-outs that look alike come from different tables or passages of the source.

Test system: LMP1 expression in Kem I cells
Assay: microbe, parasite or virus in culture
Format: cell-based, EBV
Conditions: for fold induction at 1 µM / fold induction at 2.5 µM: human gammaherpesvirus 4, 48 h; for Average LMP1 Fold Increase / Replicate 1-LMP1 Fold Increase / Replicate 2-LMP1 Fold Increase: Kem I cells, 2.5 uM, 48 hours; for Average LMP1 Fold Increase: average of replicates 1 and 2; for Replicate 1-LMP1 Fold Increase / Replicate 2-LMP1 Fold Increase: fold change in LMP1 transcript vs vehicle
[1] = read-out: Average LMP1 Fold Increase, Kem I cells, 1 uM, 48 hours, average of replicates 1 and 2
[2] = read-out: Replicate 1-LMP1 Fold Increase, Kem I cells, 1 uM, 48 hours, fold change in LMP1 transcript vs vehicle
[3] = read-out: Replicate 2-LMP1 Fold Increase, Kem I cells, 1 uM, 48 hours, fold change in LMP1 transcript vs vehicle
[4] = read-out: Average LMP1 Fold Increase, Kem I cells, 2.5 uM, 48 hours, average of replicates 1 and 2
[5] = read-out: Replicate 1-LMP1 Fold Increase, Kem I cells, 2.5 uM, 48 hours, fold change in LMP1 transcript vs vehicle
[6] = read-out: Replicate 2-LMP1 Fold Increase, Kem I cells, 2.5 uM, 48 hours, fold change in LMP1 transcript vs vehicle

In the case of COc1cccc2c1C(=O)c1c(O)c3c(c(O)c1C2=O)C[C@@](O)(C(=O)CO)C[C@@H]3O[C@H]1C[C@H](N)[C@H](O)[C@H](C)O1 [Doxorubicin], the fold induction at 1 µM [1] is reported as 47, the fold induction at 1 µM [2] is reported as 39.2 and the fold induction at 1 µM [3] is reported as 54.8.
For C[C@]12C=CC(=O)N[C@@H]1CC[C@@H]1[C@@H]2CC[C@]2(C)[C@@H](C(=O)Nc3cc(C(F)(F)F)ccc3C(F)(F)F)CC[C@@H]12 [Dutasteride], the fold induction at 2.5 µM [4] was 0.39, the fold induction at 2.5 µM [5] was 0.38 and the fold induction at 2.5 µM [6] was 0.41.
O=C(N/N=C/c1ccc(O)c(O)c1)c1cc2ccccc2cc1O [Dynasore] gave a fold induction at 2.5 µM [4] of 0.77, a fold induction at 2.5 µM [5] of 0.64 and a fold induction at 2.5 µM [6] of 0.89.
With CCn1c2ccccc2c2cc(Nc3ccnc(NCCCN4CCOCC4)n3)ccc21 [EHop-016] the “Average LMP1 Fold Increase” value was 1.06, the “Replicate 1-LMP1 Fold Increase” value was 0.70 and the “Replicate 2-LMP1 Fold Increase” value was 1.43.
CCN(c1cc(-c2ccc(CN3CCOCC3)cc2)cc(C(=O)NCc2c(C)cc(C)[nH]c2=O)c1C)C1CCOCC1 [EPZ 6438] was tested, and the fold induction at 1 µM [1] was 24.5, the fold induction at 1 µM [2] was 2.14 and the fold induction at 1 µM [3] was 46.9.
CCN(c1cc(C#CCN2CCOCC2)cc(C(=O)NCc2c(C)cc(C)[nH]c2=O)c1C)[C@H]1CC[C@H](N(C)CCOC)CC1 [EPZ 011989] gave a fold induction at 1 µM [1] of 30.5, a fold induction at 1 µM [2] of 4.1 and a fold induction at 1 µM [3] of 56.9.
COc1cccc(C=NCCN=Cc2cccc(OC)c2[O-])c1[O-].[Cl-].[Mn+3] [EUK 134] was tested, and the “Average LMP1 Fold Increase” value was 0.90, the “Replicate 1-LMP1 Fold Increase” value was 0.85 and the “Replicate 2-LMP1 Fold Increase” value was 0.95.
With NC(=O)C1CCCc2c1[nH]c1ccc(Cl)cc21 (stereo not drawn) [EX 527 (Selisistat)] the “Average LMP1 Fold Increase” value was 0.81, the “Replicate 1-LMP1 Fold Increase” value was 0.24 and the “Replicate 2-LMP1 Fold Increase” value was 1.38.
In the case of COc1cc2c(cc1Cc1cccc(Cl)c1F)c(=O)c(C(=O)O)cn2[C@H](CO)C(C)C [Elvitegravir (GS-9137, JTK-303)], the “Average LMP1 Fold Increase” value is reported as 1.23, the “Replicate 1-LMP1 Fold Increase” value is reported as 1.25 and the “Replicate 2-LMP1 Fold Increase” value is reported as 1.20.
For CCCCCCCCCCCC1=C(O)C(=O)C=C(O)C1=O [Embelin], the fold induction at 2.5 µM [4] was 0.59, the fold induction at 2.5 µM [5] was 0.43 and the fold induction at 2.5 µM [6] was 0.74.
In the case of OC[C@H]1O[C@@H](c2ccc(Cl)c(Cc3ccc(O[C@H]4CCOC4)cc3)c2)[C@H](O)[C@@H](O)[C@@H]1O [Empagliflozin (BI 10773)], the “Average LMP1 Fold Increase” value is reported as 0.58, the “Replicate 1-LMP1 Fold Increase” value is reported as 0.67 and the “Replicate 2-LMP1 Fold Increase” value is reported as 0.50.
In the case of C[C@H](N[C@@H](CCc1ccccc1)C(=O)O)C(=O)N1CCC[C@H]1C(=O)O.O.O [Enalaprilat Dihydrate], the “Average LMP1 Fold Increase” value is reported as 0.51, the “Replicate 1-LMP1 Fold Increase” value is reported as 0.51 and the “Replicate 2-LMP1 Fold Increase” value is reported as 0.52.
Work on CCN(CC)C(=O)/C(C#N)=C/c1cc(O)c(O)c([N+](=O)[O-])c1 [Entacapone] yielded a fold induction at 2.5 µM [4] of 0.6, a fold induction at 2.5 µM [5] of 0.49 and a fold induction at 2.5 µM [6] of 0.71.
For CNC(=O)c1ccc(N2C(=S)N(c3ccc(C#N)c(C(F)(F)F)c3)C(=O)C2(C)C)cc1F [Enzalutamide (MDV3100)], the “Average LMP1 Fold Increase” value was 0.96, the “Replicate 1-LMP1 Fold Increase” value was 0.88 and the “Replicate 2-LMP1 Fold Increase” value was 1.05.
For Cn1cc(C2=C(c3cn(C4CCN(Cc5ccccn5)CC4)c4ccccc34)C(=O)NC2=O)c2ccccc21 [Enzastaurin (LY317615)], the “Average LMP1 Fold Increase” value was 25.14, the “Replicate 1-LMP1 Fold Increase” value was 0.48 and the “Replicate 2-LMP1 Fold Increase” value was 49.80.
Work on CCOc1ccccc1-n1c(C(C)N2CCN(C(=O)COc3ccc(Cl)cc3)CC2)nc2ccccc2c1=O (stereo not drawn) [Erastin] yielded a fold induction at 2.5 µM [4] of 0.73, a fold induction at 2.5 µM [5] of 0.7 and a fold induction at 2.5 µM [6] of 0.75.
COc1ccc2nc([S@@+]([O-])Cc3ncc(C)c(OC)c3C)[nH]c2c1 [Esomeprazole Sodium] was tested, and the fold induction at 2.5 µM [4] was 0.3, the fold induction at 2.5 µM [5] was 0.16 and the fold induction at 2.5 µM [6] was 0.44.
In the case of CCc1cccc2c3c([nH]c12)C(CC)(CC(=O)O)OCC3 (stereo not drawn) [Etodolac], the fold induction at 2.5 µM [4] is reported as 0.84, the fold induction at 2.5 µM [5] is reported as 0.57 and the fold induction at 2.5 µM [6] is reported as 1.1.
In the case of CCOC(=O)c1cncn1[C@H](C)c1ccccc1 [Etomidate], the fold induction at 2.5 µM [4] is reported as 0.5, the fold induction at 2.5 µM [5] is reported as 0.56 and the fold induction at 2.5 µM [6] is reported as 0.44.
CO[C@H]1C[C@@H]2CC[C@@H](C)[C@@](O)(O2)C(=O)C(=O)N2CCCC[C@H]2C(=O)O[C@H]([C@H](C)C[C@@H]2CC[C@@H](OCCO)[C@H](OC)C2)CC(=O)[C@H](C)/C=C(\C)[C@@H](O)[C@@H](OC)C(=O)[C@H](C)C[C@H](C)/C=C/C=C/C=C/1C [Everolimus (RAD001)] was tested, and the “Average LMP1 Fold Increase” value was 1.65, the “Replicate 1-LMP1 Fold Increase” value was 2.00 and the “Replicate 2-LMP1 Fold Increase” value was 1.31.
Work on C=C1C[C@@H]2[C@H](CC[C@]3(C)C(=O)CC[C@@H]23)[C@@]2(C)C=CC(=O)C=C12 [Exemestane] yielded a fold induction at 2.5 µM [4] of 0.7, a fold induction at 2.5 µM [5] of 0.53 and a fold induction at 2.5 µM [6] of 0.86.
With Cc1nc(C(=O)NCC(=O)O)c(O)c2ccc(Oc3ccccc3)cc12 [FG-4592] the fold induction at 2.5 µM [4] was 0.22, the fold induction at 2.5 µM [5] was 0.19 and the fold induction at 2.5 µM [6] was 0.24.
